As a reminder, the IC50 is the concentration needed to halve the response being measured. Usually LD50 stands for the dose expected to kill half of the subjects tested.

Data set [1] is described as follows: Temperature and pH effects on stability (5 days at 5° C. or 80° C.). The class given is physicochemical. The conditions noted are these: for osmolality: about 20 mg/mL. The procedure:
Stability studies were then performed at different pHs. […] The pH of the solution was then adjusted in increments of 0.5 using 1N NaOH. Stability measurements of two duplicate samples were taken at each increment, beginning at pH 6.5 up through pH 9.0, and one sample was taken at pH 12.2. One set of samples was stored at 5° C., the other at 80° C., for five days, after which they were analyzed for pH, physical appearance, osmolality, and impurities. […] Here, impurities were determined by reverse phase HPLC as described herein.

The format of data set [2] is physicochemical. The conditions noted are these: for Amount degraded/day (%) / Predicted purity after 2 years: Arrhenius analysis. The procedure: An Arrhenius analysis was performed to predict the loss of potency and increase in degradation products over time for commonly used storage temperatures for many drugs. […] Sets of the different solutions were then placed at 40° C., 50° C., or 60° C., and samples were taken every ten days over a 60 day period. […] Specifically, these plots show a distinct difference in purity as a function of pH and temperature. […] In the pH 7.5 formulation, there was more of each of these four impurities as compared to the pH 8.5 formulation. The impurity at RRT 0.32 formed readily as a function of temperature and pH. The impurities at RRTs 0.43 and 0.46 also formed as a function of temperature and pH, but not as readily.
Indeed, the purity of the samples is similar at pH 8.5 and 9.0. […] The trends in the data shown in FIG. 5 allow an Arrhenius analysis to be performed to predict changes in purity over time at various temperatures, particularly 5° C. and 25° C. Linear regression was used to determine the positions of the lines shown in FIG. 5, which then allowed the slope of the lines (i.e., the reaction rates, per day) to be determined for each pH and a given temperature. Arrhenius plots were the generated for each of pHs 7.5, 8.5 and 9.0 from the reaction rate versus the inverse temperatures. These plots are shown in FIG. 7, which allow the equation of the lines for each of three liquid formulations to be calculated. From these equations, the purity of any given temperature for a particular formulation at a given time can be predicted.
The HPLC system (Waters Corp., model 2690 Gradient HLPC System) employed a 4.6 mm×250 mm column (MetaChem Inc.) containing 5 μm particles (Inertsil ODS-3) as the stationary phase. The system was equipped with a UV/VIS detector (Waters Corp., model 996) set to 226 nm to monitor products being eluted from the column. Data generated from the column was managed on a personal computer running Empower Software (Waters Corp.). After preparation, the column was washed with at least 100 mL of water/acetonitrile (90:10, v/v), and stored at ambient temperature in the same solution.
In each HPLC run, the mobile phase, flowing at 1.0 mL/min., comprised 7.0 g of anhydrous monobasic potassium phosphate (KH2PO4; JT Baker) dissolved in 1000 mL H2O (at least HPLC grade). The pH of the solution was adjusted to 2.5 using phosphoric acid (85%, Fisher Scientific). 2.4 g of 1-decane sulfonic acid, sodium salt (Avocado Research Chemicals) was then mixed into the solution. 50 mL of acetonitrile (HPLC Grade, Burdick & Jackson) was then mixed with 950 mL of this solution. This mixture was then degassed by filtering through Durapore membrane filters, 0.45 μm, Type HVLP, under vacuum. The column flow rate was set at 1.0 mL/min.
Diluent was prepared by dissolving 3.5 g KH2PO4 and 3.5 g (Na2HPO4, Mallincrodt) in 1000 mL of HPLC grade H2O. […] Once prepared, an alanosine standard solution was stored at ambient temperature and retained for no more than seven days.
In addition to an alanosine standard solution, a sensitivity standard was also prepared by diluting 1 mL of the alanosine standard solution 1:100 using diluent.
HPLC runs were performed after the column had equilibrated for at least three hours in the mobile phase at room temperature. Column suitability was assessed at the beginning and end of each series of experiment as follows. Initially, two 10 μL aliquots of diluent were injected onto the column in duplicate, and the chromatographs recorded and examined.

The subject of data set [3] is A-427. The experiment in a line: Intracellular ATP levels (Cell-Titer Glow). The class given is cell-based. The conditions noted are these: Homo sapiens, 72 h; A-427, NSCLC, MTAP Positive; 3 day treatment. The procedure: (§1) MTAP status was determined using immunoblot analyses and correlated with the ability of an MTA analog to rescue ATP levels in cell lines treated with SDX-102. ATP levels were measured using Cell-Titer Glow™ (Promega) after a 3 day treatment with titrated concentrations of either SDX-102 or pemetrexed.
(§2) ATP values measured using Cell-Titer Glow™ (Promega) after 3 days exposure to the MTA analog. Solid lines in FIG. 8 represent the effect of titrations of SDX-102 from 0.05 μM-20 μM (FIG. 8A) or pemetrexed from 0.01 μM-5 μM (FIG. 8B) on cellular ATP levels. The dotted lines represent the effect of a single concentration of SDX-102 (10 μM) or pemetrexed (2.5 μM) with a titration of an MTA analog from 0.1 μM-50 μM.

The subject of data set [4] is HS-766T. The experiment in a line: Intracellular ATP levels (Cell-Titer Glow). The note with it: Hs766T, 72 h; HS-766T, Pancreatic, MTAP Positive; 3 day treatment. The class given is cell-based. The procedure: as §1, §2
Data set [5] relates to NCI-H226. The experiment in a line: Intracellular ATP levels (Cell-Titer Glow). The class given is cell-based. The conditions noted are these: Homo sapiens, 72 h; NCI-H226, Mesothelioma, MTAP Positive; 3 day treatment. The procedure:
as §1, §2

The subject of data set [6] is HS-766T. The experiment in a line: Cell viability MTT assay (Example 3). The class given is cell-based. The conditions noted are these: Hs766T, 72 h, Pancreatic, MTAP Positive, 3 days. A general note: Formazan colour is commonly taken as a measure of viable cells.
The test system of data set [7] is A-427. The experiment in a line: Cell viability MTT assay (Example 3). The class given is cell-based. The conditions noted are these: Homo sapiens, 72 h; A-427, NSCLC, MTAP Positive; 3 days.
Data set [8] concerns NCI-H292. The experiment in a line: Docetaxel, 5-FU, SDX-102 alone or combined, MTT/MTS cytotoxicity (Example 4). The class given is cell-based. The note with it: Homo sapiens; NCI-H292, NSCLC, single agent, MTT 72 hours.
The subject of data set [9] is PANC-1. The data set is described as above. The class given is cell-based. The conditions noted are these: Homo sapiens; PANC-1, Pancreatic, single agent, MTT 72 hours.
For data set [10], the system named is mice. The conditions noted are these: cited from earlier work.

The structures appear in SMILES notation. Like-named read-outs stand apart in the source and are kept apart here.

As to `NC(CN(O)N=O)C(=O)O` [L-alanosine, L(−)-2-amino-3-nitrosohydroxylaminopropionic acid], the “impurities as a function of pH” value in data set [1] (80° C. five days, pH 6.5-12.2, HPLC) is “inverse relationship between the amount of impurities and pH”. For the same compound, the osmolality in data set [1] (pH 6.5, stored at 5° C. five days) is 225 mOsm; in [1] (pH 6.5, stored at 80° C. five days), 247 mOsm; in [1] (pH 8.0, stored at 5° C. five days), 272 mOsm; in data set [1] (pH 8.0, stored at 80° C. five days), 273 mOsm. In addition, the “Amount degraded/day (%)” value is listed as 0.000374% in data set [2] (20 mg/mL, pH 7.5, 5° C.) and 0.000601% in [2] (20 mg/mL, pH 7.5, 25° C.). Also, the “Predicted purity after 2 years” value was 99.727% in data set [2] (20 mg/mL, pH 7.5, 5° C.); 99.561% in [2] (20 mg/mL, pH 7.5, 25° C.); 99.985% in [2] (20 mg/mL, pH 8.5, 5° C.); 99.930% in [2] (20 mg/mL, pH 8.5, 25° C.); 100.00% in [2] (20 mg/mL, pH 9.0, 5° C.); 100.00% in data set [2] (20 mg/mL, pH 9.0, 25° C.). Further, in [2] (20 mg/mL, pH 8.5-9.0, stored at 25° C., at least two years), the calculated purity result is recorded as “more than 99.9%”. Moreover, in [2] (solutions pH 7.5, 8.5, 9.0 stored at 40° C.), the “trend in purity over 60 days” value is “no trend in decreased purity”. Also, the IC50 in data set [3] is 1500 nM; in [4] it was 2000 nM; in [5], 400 nM; in data set [6], > 20000 nM; in data set [7] it was 3300 nM; in data set [8], 200 ± 60 nM. Also, in [9], the IC50 stood at 10000 ± 5000 nM. The results for the LD50 in data set [10] (administered intraperitoneally) and in data set [10] (given intravenously) were 600 mg/kg and 300 mg/kg, respectively.

(Values after patent US20060041013A1, “Alanosine formulations and methods of use” (priority 2004, published 2006).)
